Reference: patent US10723726B2, “Solid forms of (Z)-4-(5-((3-benzyl-4-oxo-2-thioxothiazolidin-5-ylidene)methyl)furan-2-yl)benzoic acid” (GB006, INC., priority 2015, dated 2020)
Entries after “also recorded” stand apart in the source; their conditions may differ. Structures can show the parent of a compound that is named as a salt. Where two headings read alike, the source gives them in different places. Values belong to the compound of their own block, whether it stands above or below them.

Tests used:
[1] = Aqueous solubility by equilibration, HPLC analysis; assay type: physicochemical; conditions: for Appearance / Soln pH: after slurrying in water 4-5 days; for HPLC purity (%): after slurrying in water 4-5 days (chemical stability)
Method: An aliquot of the UHQ water test solvent (1 mL) was added to an accurately weighed sample of the LA1 salts and agitated at ambient temperature for a period of 4 days. A sample was withdrawn, filtered through a […], and analyzed by HPLC. HPLC was used to determine aqueous equilibrium solubility at ambient temperature. […] Samples were slurried in water for 4-5 days before analysis.

[2] = Humidity stress at 40° C./75% RH; assay type: physicochemical; conditions: 5-6 days
Method: The larger vials were capped, sealed with Parafilm and placed inside an oven at 40° C. for up to 6 days. Salts were then removed from these conditions and changes observed (e.g. color, deliquescence etc.) before being analyzed for weight change and by XRPD. Samples were examined visually after stressing, form composition confirmed by XRPD analysis and weight change recorded (Table 7).

in vivo [3] = conditions: male, dog; for AUC0-t: AUC0-12 h
Method: The PO (2 mg/kg) dose solution of micronized LA1 was prepared in 0.1% Tween-80 0.5% (w/v) and methyl cellulose in water.
The objective of the study was to investigate the preclinical pharmacokinetic profile of LA1 (micronized powder) in Beagle dog. To delineate the plasma concentration vs. time curve and characterize the relevant pharmacokinetic parameters to generate data on the PK properties viz., bioavailability, half-life (b1/2), volume of distribution, Cmax, Tmax, AUC and elimination rate constant of LA1 in Beagle dog.
LA1 was a coarse material which was micronized using laboratory scale ball mill. […] The micronized LA1 was recovered, weighed and stored in glass container at room temperature. For intravenous drug administration, LA1 excipient compatibility assay for dosing in dogs were carried out.
In brief, a known amount of LA1 was loaded to a cylindrical capped container made of stainless steel followed by addition of stainless steel balls. The ball mills were rotated on their axis for total of 60 minutes (6 cycles X 10 minutes). The micronized LA1 was recovered, weighed and stored in glass bottle at room temperature.
Test system: Healthy Beagle dog weighing 10-12 kg (age 10 months), males were used for the study. Crossover design was adopted for the experiments wherein 02 dogs were used in the study for oral and intravenous administration. Both the animals were housed stainless steel cage provided with a hopper to hold pellet feed and a separate water hopper. Temperature and humidity was maintained at 22±3° C. and 40-70%, respectively. The illumination was controlled to give a sequence of 12 h light and 12 h dark cycle. All the animals were adapted to the experimental conditions for at least 5 days prior to dosing. All animals were provided with Pedigree™ standard pellet feed, except for 10 to 12 h before treatment and 4 h after the drug administration. Water was provided ad libidum.
Formulation and drug administration: Exactly 90 mg of the test item LA1 (micronized powder) was weighed and transferred to a mortar and briefly triturated with pestle. Small volume of vehicle [0.5% (w/v) Carboxy methyl cellulose with 0.1% Tween-80] in water was then added slowly with continuous trituration until a uniform suspension was obtained. The content was then transferred into the measuring cylinder. The mortar was rinsed till the complete transfer of test item into the measuring cylinder was ensured. The final volume was then made up to 225 mL with vehicle to get a uniform suspension with desired concentration of 0.4 mg/mL. Dosing formulations were given by oral gavage at a dose volume not exceeding 5 mL/kg.
Intravenous drug formulation: Hemolysis assay using dog whole blood was employed to assess the damage of red blood cells for selection of excipient for intravenous dosing. […] Exactly 22.5 mg of the test item (micronized powder) was weighed into a graduated tube. 2.25 mL of DMSO was added drop wise and mixed by vortex. Then, 40.50 mL of Polyethylene glycol 400 (PEG-400) was added in two to three fragments and vortex intermittently. Then 2.25 mL Ethanol was added drop wise and vortex to get clear solution. The formulation was subjected to ultra-sonication for 5 minutes.
Sample collection: Serial method was used for blood sampling. Blood samples were collected as mentioned in the study design section (7). The blood sample (−1.5 mL) was collected from saphenous vein into labeled tubes, containing 2% w/v K2EDTA solution, as an anticoagulant.

[4] = male, in vivo
Method: (§1) In a second experiment, the dose solution was prepared in Tween-80 (0.02%) and 0.5% methyl cellulose in Milli-Q water. IP (2 mg/kg) and IV (1 mg/kg) dose solutions were prepared in a 5% DMSO and 95% PEG-200.
(§2) The PO (2 mg/kg) dose solution was prepared in Tween-80 (0.02%) and 0.5% methyl cellulose in Milli-Q water. The IV (1 mg/kg) dose solution was prepared in a solution of 5% DMSO and 95% PEG-200.
(§3) The routes of administration were namely PO (gavage), IP (bolus) and IV (bolus through tail vein). A total of four SD male rats were used aged between 5-6 weeks. The feeding regimen included 12 h fasting and the feed was provided 2 hrs after the dosage inoculation and water was provided ad libidum. The blood collection schedule for PO/IP was at 0.25, 0.5, 1, 2, 4, 8, 10 and 24 h, and for IV it was at 0.12, 0.25, 0.5, 1, 2, 4, 8 and 24 h. For PO dosage, tween-80 (0.02%) and 0.5% methyl cellulose prepared in milli-Q water were used as vehicles; for IP and IV dosage 5% DMSO and 95% PEG-200 were used as vehicles.
(§4) Stock solution (178 μg/mL) in methanol was further diluted using methanol: water (80:20, v/v) to obtain working solutions in the range of 10.4 to 20745 ng/mL.
(§5) 50 μL of sample was aliquoted in to pre-labeled vials. To it was added 200 μL of 10% tetrahydrofuran containing IS (100 ng/mL; tolbutamide) and mixed well, vortexed for 5 min followed by centrifugation for 5 min at 14000 rpm for at 4° C. Supernatant was separated and 5 μL of same was injected on LC-MS/MS.
(§6) Data Analysis: Individual concentration-time data were analyzed using WinNonlin (Version 5.3) by non-compartmental analysis (NCA) method.
(§7) The routes of administration were namely PO (gavage) and IV (bolus through tail vein). A total of four SD male rats were used aged between 5-6 weeks. The feeding regimen included 12 h fasting and the feed was provided 2 hrs after the dosage inoculation and water was provided ad libitum. The blood collection schedule for PO was at 0.25, 0.5, 1, 2, 4, 8, 10 and 24 h, and for IV it was at 0.12, 0.25, 0.5, 1, 2, 4, 8 and 24 h. For PO dosage, tween-80 (0.02%) and 0.5% methyl cellulose prepared in milli-Q water were used as vehicles; for IV dosage 10% DMSO and 90% PEG-200 were used as vehicles.

in vivo [5] = conditions: male, Sprague-Dawley, rat
Method: as §1, §2, §3, §4, §5, §6, §7

[6] = Histopathology (Example 19); assay type: in vivo, C57BL/6 mice; conditions: also seen in one animal of the control group
Method: HISTOPATHOLOGY. Histopathological examination was conducted using liver, kidney, lung, spleen, heart, and stomach samples.

[7] = system: murine melanoma B16-F10 tumors; assay: Murine melanoma B16F10 allograft efficacy (Example 19); assay type: in vivo, C57BL/6 mice; conditions: 3 or 30 mg/kg daily for 15 days
Method: TUMOR CELLS. B16-F10 cells were cultured in DMEM cell culture medium supplemented with 10% FBS and 1% penicillin-streptomycin. The cells were maintained at 37° C. in […]. When the cells reached 75-80% confluence, they were harvested by trypsinization, washed, and counted. The cells were then re-suspended in serum free medium at a concentration of 0.1 million cells/75 μl.
TUMOR CELL INOCULATION. Cells were inoculated subcutaneously on the flank of black mice. Prior to inoculation, hair was trimmed and skin on the injection site (dorsal right flank) was swabbed with alcohol. Cells in serum free medium (0.1 million cells/75 μl) were mixed with Matrigel at a ratio of 3:1 and a total volume of 100 μl was injected into each animal with a 1 mL BD syringe attached to a 26 G needle.
RANDOMIZATION. Tumors were palpable around Day 7 of inoculation.
STATISTICAL CALCULATIONS. All statistical calculations were performed using Prism 5.0 (GraphPad Software Inc., USA). Comparisons of tumor size measurements during and at the termination of the study were made between the treatment groups and respective vehicle control groups using One Way ANOVA followed by Dunnett's multiple comparison tests. A p-value of less than 0.05 was considered significant.

[8] = beagle, iv, 0.5 mg/kg, Plasma concentration
[9] = beagle, po, 0.5 mg/kg, Plasma concentration
[10] = Sprague-Dawley, rat, iv, 1 mg/kg
[11] = Sprague-Dawley, rat, po, 2 mg/kg
[12] = Sprague-Dawley, rat, ip, 2 mg/kg

Appearance [1]: No change
Soln pH [1]: 7
HPLC purity (%) [1]: 5.58%
Weight gain (%) [2]: 1.7%
XRPD after stressing [2]: More disordered
Compound: [Ca] [calcium]

Appearance [1]: No change
Soln pH [1]: 8
HPLC purity (%) [1]: 5.31%
Weight gain (%) [2]: −5.5%
Compound: C1CNCCN1 [piperazine]
XRPD after stressing [2]: phase change; also recorded: New pattern (R)

Appearance [1]: Yellow ppt seen
Soln pH [1]: 8
HPLC purity (%) [1]: 89.7%
physical stability in water ([1]; slurrying 4-5 days, XRPD): not physically stable in water
Compound: NC(CO)(CO)CO [tromethamine]
XRPD after stressing [2]: phase change; also recorded: New pattern (S)

concentration at 12 h (in vivo [3]; Beagle, iv, 0.5 mg/kg, Plasma concentration): 7.93 ng/mL
bioavailability (in vivo [3]; beagle, Absolute oral bioavailability): 50.6%
clearance (in vivo [3]; beagle, Dog Cl (ml/min/kg)): 2.1 mL/min/kg
bioavailability (in vivo [3]; beagle, Dog F % (absolute oral bioavailability)): 50%
AUC0-t (in vivo [3]; beagle, iv, 0.5 mg/kg): 1330 ng·h/mL
AUC(0-inf) (in vivo [3]; beagle, iv, 0.5 mg/kg, AUC0-inf): 1350 ng·h/mL
AUC(0-inf) (in vivo [3]; beagle, iv, 0.5 mg/kg, AUCinf): 1350 ng·h/mL
C0 (in vivo [3]; beagle, iv, 0.5 mg/kg, C0): 1330 ng/mL
Cmax (in vivo [3]; beagle, iv, 0.5 mg/kg, Co/Cmax): 2040 ng/mL
concentration at 0.05 h (in vivo [3]; [8]): 1570 ng/mL
concentration at 0.1 h (in vivo [3]; [8]): 897 ng/mL
concentration at 0.25 h (in vivo [3]; [8]): 717 ng/mL
concentration at 0.5 h (in vivo [3]; [8]): 505 ng/mL
concentration at 1 h (in vivo [3]; [8]): 405 ng/mL
bioavailability (in vivo [3]; beagle, po, 0.5 mg/kg, Absolute Bioavailability F %): 50.6%
concentration at 4 h (in vivo [3]; [9]): 660 ng/mL
concentration at 6 h (in vivo [3]; [9]): 211 ng/mL
concentration at 8 h (in vivo [3]; [9]): 118 ng/mL
concentration at 12 h (in vivo [3]; [9]): 37.5 ng/mL
AUC(0-inf) (in vivo [3]; beagle, po, 2 mg/kg, AUCinf): 2690 ng·h/mL
Cmax (in vivo [3]; beagle, po, 2 mg/kg, Cmax): 685 ng/mL
half-life (in vivo [3]; beagle, po, 2 mg/kg): 2.11 h
Tmax (in vivo [3]; beagle, po, 3 mg/kg): 4 h
AUC0-t (in vivo [3]; beagle, po, 3 mg/kg): 2570 ng·h/mL
AUC(0-inf) (in vivo [3]; beagle, po, 3 mg/kg, AUC0-inf): 2690 ng·h/mL
Cmax (in vivo [3]; beagle, po, 3 mg/kg, Co/Cmax): 685 ng/mL
half-life (in vivo [3]; beagle, po, 3 mg/kg): 2.11 h
Rat Cl ([4]; Sprague-Dawley): 23.4 mL/min/kg
Vss ([4]; Sprague-Dawley, rat): 2.14 L/kg
AUC0-t [4, 10]: 715 ng·h/mL
AUC0-∞ [4, 10]: 729 ng·h/mL
C0 [4, 10]: 1025 ng/mL
MRT [4, 10]: 1.47 h
Tlast [4, 10]: 12.0 h
Vd [4, 10]: 2.63 L/kg
AUC0-t [4, 11]: 319 ng·h/mL
AUC0-∞ [4, 11]: 336 ng·h/mL
Tlast [4, 11]: 6.50 h
Tmax [4, 11]: 0.88 h
AUC (in vivo [5]; po, 2 mg/kg, AUC (with PO bioavailability)): 0.76 µM·h
AUC (in vivo [5]; po, 2 mg/kg, AUC in mM*hr): 0.76 µM·h
MRT (in vivo [5]; po, 2 mg/kg, MRT (hr)): 2.04 h
bioavailability (in vivo [5]; po, 2 mg/kg, Rat F %): 23%
half-life (in vivo [5]; po, 2 mg/kg, t1/2 (hr)): 1.1 h
Compound: O=C(O)c1ccc(-c2ccc(/C=C3\SC(=S)N(Cc4ccccc4)C3=O)o2)cc1 [LA1 (micronized)]

solubility ([1]; UHQ water, thermodynamic from solid, water, ambient temperature, slurried 4-5 days, corrected for weight of counter-ion, read-out: Aq solub): 724 µg/mL
Appearance [1]: No change
Soln pH [1]: 8
HPLC purity (%) [1]: 34.7%
Rat Cl ([4]; Sprague Dawley, iv, 1 mg/kg): 17.5 mL/min/kg
Vss ([4]; Sprague Dawley, rat): 0.74 L/kg
Rat Cl ([4]; Sprague-Dawley): 18 mL/min/kg
Rat F % ([4]; Sprague-Dawley, ip, 2 mg/kg): 167%
Rat Cl ([4]; Sprague-Dawley, iv, 1 mg/kg): 17.5 mL/min/kg
Rat F % ([4]; Sprague-Dawley, po, 2 mg/kg): 37.1%
% F (absolute IP bioavailability) ([4]; Sprague-Dawley, rat): > 100%
F (absolute oral bioavailability) ([4]; Sprague-Dawley, rat): 37.1%
Vss ([4]; Sprague-Dawley, rat): 0.74 L/kg
AUC0-t [4, 12]: 3252 ng·h/mL
AUC0-∞ [4, 12]: 3270 ng·h/mL
Tlast [4, 12]: 17.0 h
Tmax [4, 12]: 0.25 h
AUC0-t [4, 10]: 967 ng·h/mL
AUC0-∞ [4, 10]: 978 ng·h/mL
C0 [4, 10]: 2142 ng/mL
MRT [4, 10]: 0.91 h
Tlast [4, 10]: 8.00 h
Vd [4, 10]: 1.85 L/kg
AUC0-t [4, 11]: 722 ng·h/mL
AUC0-∞ [4, 11]: 726 ng·h/mL
Tlast [4, 11]: 10.0 h
Weight gain (%) [2]: 1.4%
XRPD after stressing [2]: No change
bioavailability (in vivo [5]; F (absolute oral bioavailability)): 37%
MRT (in vivo [5]; po, 2 mg/kg, MRT): 1.54 h
half-life (in vivo [5]; po, 2 mg/kg, t1/2,ß): 1.6 h
Tmax (in vivo [5]; po, 2 mg/kg, tmax): 0.5 h
Compound: O=C(O)c1ccc(-c2ccc(/C=C3\SC(=S)N(Cc4ccccc4)C3=O)o2)cc1 [LA1 meglumine salt]
microscopic examination of liver tissues [6]: minimal to moderate hepatocellular necrosis in one animal
tumor metastasis in lung tissue [6]: Tumor metastasis was observed in lung tissue from one animal
growth inhibition of B16-F10 tumors as compared to vehicle control [7]: 58-66%
